Experimental data: patent US20090022803A1, “Oral Formulations For Delivery of Catecholic Butanes Including Ndga Compounds” (priority 2005, published 2009)

Tests used:
[1] = Human Phase 0 three-way crossover microdose pharmacokinetic study of 14C-labelled M4N, AMS; assay type: in vivo; conditions: for F: bioavailability of oral dose compared to IV dose; for Tmax: intravenous dose
Description: This study was designed to assess the absorption of M4N when administered to humans as a sub-therapeutic dose either as a single oral dose under fed and fasted conditions or a single intravenous dose (Regimens A-C, respectively, in Table 24). The study was a three-way crossover study design in a target population of healthy male subjects and consisted of three study periods of approximately 35 hours duration, each separated by a minimum period of at least 7 days between dosing. During the course of each study period, pharmacokinetic blood samples were taken at specified time points after dosing and urine was collected over pre-defined time intervals. The subjects were able to leave the clinical unit after the completion of study specific procedures at 24 hours post-dose.
In this study, M4N was administered to humans in a 100 μg quantity. M4N was lightly-labelled with ^14C (3.3 kBq per 100 μg) and administered to healthy volunteers. Each oral administration of M4N consisted of 0.1 mg of ^14C labeled M4N and 376.8 mg of glycerol monooleate in a size 0 gelatin capsule. The single intravenous infusion of M4N consisted of 0.1 mg/mL ^14C labelled M4N, 30% (w/v) HP-β-CD, and 25% (v/v) PEG diluted with water to 1 mL for bolus injection. Following collection of blood and urine from each subject, samples were analyzed for ^14C content using Accelerator Mass Spectrometry (AMS) to determine the maximum concentration of M4N (Cmax) that occurred at time Tmax, the overall area under the curve (AUC) that corresponds to the overall absorption of M4N at the times of testing (AUC0-t) and overall (AUC0-∞), the terminal half-life (T1/2) of each sample and the relative and overall bioavailability (Frel and F), of the oral dose of M4N compared to the IV dose of M4N. The baseline levels of M4N were corrected for any residual M4N remaining in the subjects following the periods between dosing so as not to inflate the levels of M4N for any subsequent dosing.

[2] = 40 mg/mL M4N/PEG 300 stability, RP-HPLC analysis; assay type: physicochemical; conditions: for M4N: 40 mg/mL M4N/PEG 300
Description: The stability of 40 mg/mL M4N dissolved in 100% PEG 300 was evaluated up to 24 hours incubation at 30° C., 45° C. and 60° C. A stock 40 mg/mL M4N in PEG 300 was prepared at 60° C., following the procedure set forth in Example 18. Subsequently, aliquots were removed and incubated at the appropriate temperature. Samples were rotated at 450 rpm during the entire course of incubation. Visual observations and RP-HPLC data were collected throughout. […] The formation of crystals coincided with a loss of soluble M4N (Table 30). The 40 mg/mL M4N/PEG 300 samples incubated at 45° C. and 60° C. were stable after 24 hours incubation as assessed by visual observations and RP-HPLC analysis (Tables 29 and 30).

[3] = human, 100 μg, total 14C plasma
[4] = human, oral and intravenous 100 μg

COc1ccc(C[C@@H](C)[C@@H](C)Cc2ccc(OC)c(OC)c2)cc1OC [Formulation M4N, meso-1,4-bis(3,4-dimethoxyphenyl)-2,3-dimethylbutane]
F ([1]; Regimen A (oral, fed): 100 μg single oral dose following a high fat breakfast, 14C, baseline corrected, mean ± SD): 91.2 ± 19.1%
F ([1]; Regimen B (oral, fasted): 100 μg single oral dose following an overnight fast, 14C, baseline corrected, mean ± SD): 122.1 ± 14.5%
AUC0-t oral dose in fasted subjects compared with the intravenous dose [1, 3]: slightly higher
AUC0-t oral dose in fed subjects compared with the intravenous dose [1, 3]: slightly lower
apparent absorption following oral administration ([1]; human, fed and fasted state): very high
Tmax ([1]; human, eight of the ten subjects (first sampling time)): 4.8 min
Tmax ([1]; human, two subjects): 10.2 min
AUC0-t in fed subjects compared with fasted subjects ([1]; human, oral 100 μg): generally lower
Tmax, generally ([1]; human, oral 100 μg, fasted subjects): 60 min
adverse events [1, 4]: no serious or severe adverse events
tolerability [1, 4]: well tolerated
vital signs or ECGs [1, 4]: No clinically significant changes
Frel ([1]; relative bioavailability, Regimen A (oral, fed): 100 μg single oral dose following a high fat breakfast, 14C, baseline corrected, mean ± SD): 75.1 ± 16.2%
amount or types of impurities peaks ([2]; 40 mg/mL M4N/PEG 300, 30° C., 45° C. and 60° C.): No changes
stability by visual observations and RP-HPLC analysis ([2]; 40 mg/mL M4N/PEG 300, 24 hours at 45° C.): stable
stability by visual observations and RP-HPLC analysis ([2]; 40 mg/mL M4N/PEG 300, 24 hours at 60° C.): stable
M4N ([2]; 30° C., 0 hours): 39.5 mg/mL
M4N ([2]; 30° C., 2 hours): 40.8 mg/mL
M4N ([2]; 30° C., 6 hours): 40.6 mg/mL
M4N ([2]; 30° C., 24 hours): 37.4 mg/mL
M4N ([2]; 45° C., 2 hours): 40.4 mg/mL
M4N ([2]; 45° C., 6 hours): 39.8 mg/mL
M4N ([2]; 45° C., 24 hours): 40.6 mg/mL
M4N ([2]; 60° C., 2 hours): 39.1 mg/mL
M4N ([2]; 60° C., 6 hours): 39.2 mg/mL
M4N ([2]; 60° C., 24 hours): 39.2 mg/mL
